IC50 data for 10 compounds are collected here from BindingDB's records for doi:10.7270/Q2DV1HGT (Burnham Center For Chemical Genomics, 2012).

A value given as a limit tells only on which side of the number the result lay.

The assay has as its target T1, Tyrosine-protein phosphatase non-receptor type 5 (Homo sapiens, UniProt P54829).
T1 sequence (P54829 whole entry): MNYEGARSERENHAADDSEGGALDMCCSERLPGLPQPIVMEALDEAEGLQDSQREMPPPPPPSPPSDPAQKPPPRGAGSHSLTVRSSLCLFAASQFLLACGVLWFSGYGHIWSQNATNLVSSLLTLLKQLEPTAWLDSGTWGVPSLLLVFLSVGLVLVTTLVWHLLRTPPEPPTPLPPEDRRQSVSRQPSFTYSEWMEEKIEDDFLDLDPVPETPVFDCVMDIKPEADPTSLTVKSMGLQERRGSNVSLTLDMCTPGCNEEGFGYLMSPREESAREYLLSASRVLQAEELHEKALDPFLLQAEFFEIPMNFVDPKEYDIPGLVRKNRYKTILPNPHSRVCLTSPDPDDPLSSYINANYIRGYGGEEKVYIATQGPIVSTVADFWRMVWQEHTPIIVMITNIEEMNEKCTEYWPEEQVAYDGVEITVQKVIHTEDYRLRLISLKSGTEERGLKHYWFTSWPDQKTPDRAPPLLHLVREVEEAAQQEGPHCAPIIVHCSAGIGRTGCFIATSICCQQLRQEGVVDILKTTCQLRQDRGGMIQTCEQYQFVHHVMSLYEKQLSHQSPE
As to the kind of experiment: STEP phosphatase inhibitors, confirmation, biochemical, fluorescence intensity, uHTS hits (AID 602372).
For the compound `S=C1N=C(C23CC4CC(CC(C4)C2)C3)CC(c2ccc3c(c2)OCO3)N1` (stereo not given), inhibition was half-maximal at 56.8 µM (IC50).

For `CCOc1cc(CN=Nc2nc(O)c(CC(=O)O)s2)ccc1OCc1ccc(Cl)cc1Cl` [2-[2-[(N''E)-N''-[4-(2,4-dichlorobenzyl)oxy-3-ethoxy-benzylidene]hydrazino]-4-keto-2-thiazolin-5-yl]acetic acid], the half-maximal inhibitory concentration (IC50) is 4.09 µM.

`C=c1c(O)c(O)c(=C2C(=O)C(=O)C(C)C(=O)C2=O)c(O)c1O` (stereo not given) [(3E)-5-hydroxy-6-methyl-3-(2,3,5-trihydroxy-4-methyl-6-oxo-1-cyclohexa-2,4-dienylidene)cyclohex-5-ene-1,2,4-trione]: the half-inhibitory concentration (IC50) is above 80 µM.

The compound `O=C1C(=O)N(CCCO)C(c2ccc(Br)cc2)C1C(=O)c1ccc(Br)cc1` (stereo not given) [(4E)-5-(4-bromophenyl)-4-[(4-bromophenyl)-oxidanyl-methylidene]-1-(3-oxidanylpropyl)pyrrolidine-2,3-dione] yielded an IC50 of 36.2 µM. In the case of `S=C1N=C2C(=C3SCCS3)CCCC2C(c2ccccc2)N1` (stereo not given) [MLS000516376] it was 22.6 µM; in that of `CCN(CC)P(=O)(NC(=O)C(Cl)(Cl)Cl)N(CC)CC` [MLS000564159], above 80 µM. Turning to `CSc1ccc(CN=Nc2ccc(S(=O)(=O)Nc3ccccc3C(=O)O)cc2[N+](=O)[O-])cc1` [MLS002245633], inhibition was half-maximal at 4.12 µM (IC50). In the case of `O=C(N/N=C/C1C=CC=CC1=O)c1cccc([N+](=O)[O-])c1` (stereo not given) [MLS002667988] it was 8.95 µM.

In turn, `COc1ccc(OC)c(-n2c(O)c3o[nH]c(-c4ccccc4Cl)c-3c2=O)c1` [SMR000046218] gave a 50% inhibitory concentration (IC50) of 24.4 µM. In turn, `COc1ccc(CN=Nc2nc(O)c(CC(=O)O)s2)cc1OCc1ccc(Cl)cc1Cl` [[2-({3-[(2,4-dichlorobenzyl)oxy]-4-methoxybenzylidene}hydrazono)-4-oxo-1,3-thiazolidin-5-yl]acetic acid] returned an IC50 of 9.72 µM.
